Results as given in PMC5610941 (Journal of molecular biology, 2017).

Target: HtpG (Escherichia coli, UniProt P0A6Z3)
Experiment: SAXS radius of gyration titration, closed-state accumulation
Assay type: binding

HtpG, sequence (P0A6Z3 whole entry): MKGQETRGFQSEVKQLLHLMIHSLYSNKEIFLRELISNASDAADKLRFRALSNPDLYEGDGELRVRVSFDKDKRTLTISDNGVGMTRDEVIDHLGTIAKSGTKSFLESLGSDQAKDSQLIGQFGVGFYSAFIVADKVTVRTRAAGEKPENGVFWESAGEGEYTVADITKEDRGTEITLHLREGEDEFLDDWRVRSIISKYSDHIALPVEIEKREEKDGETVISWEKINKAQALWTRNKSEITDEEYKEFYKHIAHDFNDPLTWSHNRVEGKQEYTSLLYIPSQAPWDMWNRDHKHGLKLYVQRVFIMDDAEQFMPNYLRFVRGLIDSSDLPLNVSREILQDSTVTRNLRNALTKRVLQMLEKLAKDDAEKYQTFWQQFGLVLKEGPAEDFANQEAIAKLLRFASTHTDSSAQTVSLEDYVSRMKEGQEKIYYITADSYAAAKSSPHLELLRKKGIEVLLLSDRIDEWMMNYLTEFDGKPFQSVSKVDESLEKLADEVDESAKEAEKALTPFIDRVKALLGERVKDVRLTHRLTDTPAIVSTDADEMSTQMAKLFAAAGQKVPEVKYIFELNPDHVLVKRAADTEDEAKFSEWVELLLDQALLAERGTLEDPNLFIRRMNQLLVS

- Kd: 12 to 15 µM
Compound: Nc1ncnc2c1ncn2[C@@H]1O[C@H](COP(=O)(O)OP(=O)(O)NP(=O)(O)O)[C@@H](O)[C@H]1O [AMPPNP]
